Read-outs that look alike come from different tables or passages of the source.
Legend:
Drosophila OR47a = biological target: T1, Drosophila OR47a (Drosophila melanogaster, UniProt P81921); experiment: Calcium ion fluorescence (GCaMP6) assay, OR47a stable HEK293 cell line; type: cell-based; details: for Average response: OR47a cell line, mean of biological replicates; for DF norm AVERAGE OR47a: threshold 0.05, below shown as 0
T1 construct: expressed in transfected cells
T1 sequence (P81921 1-385): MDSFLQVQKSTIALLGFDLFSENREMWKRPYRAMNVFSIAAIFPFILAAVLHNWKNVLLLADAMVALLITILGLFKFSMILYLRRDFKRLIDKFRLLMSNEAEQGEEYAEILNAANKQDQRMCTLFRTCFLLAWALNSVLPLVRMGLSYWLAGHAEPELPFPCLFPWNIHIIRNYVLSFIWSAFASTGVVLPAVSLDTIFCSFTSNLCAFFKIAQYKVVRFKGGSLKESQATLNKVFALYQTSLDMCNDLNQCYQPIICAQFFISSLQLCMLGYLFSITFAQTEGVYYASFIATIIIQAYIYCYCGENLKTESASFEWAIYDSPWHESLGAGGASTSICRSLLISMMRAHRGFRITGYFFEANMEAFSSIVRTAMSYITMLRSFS
T1 sequence (Q9VNB5 1-486 partner): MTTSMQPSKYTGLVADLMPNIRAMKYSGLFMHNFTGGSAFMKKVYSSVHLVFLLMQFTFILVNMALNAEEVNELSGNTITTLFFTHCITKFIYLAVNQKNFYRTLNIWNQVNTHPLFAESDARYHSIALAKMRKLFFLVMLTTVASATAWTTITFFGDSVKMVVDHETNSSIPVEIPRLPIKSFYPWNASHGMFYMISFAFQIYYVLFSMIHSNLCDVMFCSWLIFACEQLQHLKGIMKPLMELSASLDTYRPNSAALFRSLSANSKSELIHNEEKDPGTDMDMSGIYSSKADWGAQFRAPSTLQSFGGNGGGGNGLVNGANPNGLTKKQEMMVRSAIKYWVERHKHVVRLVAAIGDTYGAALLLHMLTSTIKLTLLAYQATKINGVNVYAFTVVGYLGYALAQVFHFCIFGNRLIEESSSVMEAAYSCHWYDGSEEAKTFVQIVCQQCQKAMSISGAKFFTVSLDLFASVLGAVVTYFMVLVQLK
Protocol: (§1) These VUAA1 normalized ∆F values were used to compare the different receptors and ligands.
(§2) The concentration-dependent effect of the reference ligands on their cognate cell lines was examined in more detail. Twelve different ligand concentrations were measured on each cell line in an overall 0.01 μM to 100 μM concentration range with 5 repetitions with three technical replicates each time.
(§3) Twelve thousand to 18,000 cells were plated into each well of a black wall, transparent bottom 384-well microplate (Greiner) 48 h or 72 h before the measurements and were simultaneously treated with 1 μg/mL doxycycline. […] The plate has 24 columns, thus we could record responses in up to eight different cell lines in each plate. On the day of the experiment, the growth medium was replaced with 20 µL assay buffer/well (140 mM NaCl, 5 mM KCl, 2 mM CaCl2, 1 mM MgCl2, 5 mM HEPES-Na, 20 mM glucose, pH 7.3, 340 mOsm). […] Baseline fluorescence (F0) was recorded for 5 s, after which 7 µL VOC buffer (140 mM NaCl, 5 mM KCl, 2 mM CaCl2, 1 mM MgCl2, 5 mM HEPES-Na, 31 mM glucose, 0.1% DMSO, pH 7.3, 340 mOsm) was injected into each well in one row and the fluorescence response was recorded for an additional 30 s, at a rate of one read/sec. VOC solutions (VOC buffer with 4× concentration of the final measured VOC concentration, 9 µL/well was injected) were measured on the same wells in a second round with the same protocol. Each individual concentration of a specific VOC sample was recorded in three wells for the same cell line on the same microplate. The raw data were exported in xls file format, F0 and FMAX values, and the fluorescence intensity changes (∆F) were calculated in Excel (Microsoft) (Supplementary file Data summary.xlsx) using the following equation: ΔF=FMAX-F0/F0 (see also Fig. 1C). On each plate, we recorded the response of each cell line to 50 µM VUAA1. The average of these ∆F values of each cell line were used to calculate the VUAA1-normalized values for the rest of the plate, by dividing VOC response ∆F values by the average VUAA1 response ∆F value of the corresponding OR cell line. Each VOC-OR combination was measured three times as technical replicates. […] The average of these replicates were used as one ∆F and VUAA1-normalized ∆F in the following analysis.
(§4) In the next rows we tested the reference VOCs (or other VOCs known to activate the corresponding cell lines), in order to test if all cell lines are responsive. The remaining rows were used to test VOCs with unknown effect.
(§5) The recorded FMAX, F0, ∆F, VUAA1-normalized ∆F values, as well as the OR name, the name of the tested sample, and the final concentration for each well were copied into supplementary file Data summary.xlsx, that was used to summarize all the plates recorded. Here, the averages of the measurements were calculated for each receptor-VOC-concentration combination.

Drosophila OR13a = biological target: T2, Drosophila OR13a (Drosophila melanogaster, UniProt Q9VXL0); experiment: Calcium ion fluorescence (GCaMP6) assay, OR13a stable HEK293 cell line; type: cell-based; details: for DF norm AVERAGE OR13a: threshold 0.05, below shown as 0
T2 construct: expressed in transfected cells
T2 sequence (Q9VXL0 1-418): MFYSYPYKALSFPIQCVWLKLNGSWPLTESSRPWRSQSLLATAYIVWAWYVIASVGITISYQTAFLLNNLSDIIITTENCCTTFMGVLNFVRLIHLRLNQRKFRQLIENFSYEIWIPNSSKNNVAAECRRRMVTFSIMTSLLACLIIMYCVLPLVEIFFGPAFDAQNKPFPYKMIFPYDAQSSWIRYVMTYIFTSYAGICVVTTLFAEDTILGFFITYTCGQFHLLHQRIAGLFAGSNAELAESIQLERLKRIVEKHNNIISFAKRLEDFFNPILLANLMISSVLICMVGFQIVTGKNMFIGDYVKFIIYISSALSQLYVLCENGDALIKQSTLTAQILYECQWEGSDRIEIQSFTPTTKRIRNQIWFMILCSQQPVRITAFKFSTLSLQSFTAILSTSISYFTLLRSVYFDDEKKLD
T2 sequence (Q9VNB5 1-486 partner): T1 sequence (Q9VNB5 1-486 partner)
Protocol: as §1, §2, §3, §4, §5

[1] = HEK293, read-out: OR47a response (VUAA1-normalized response)
[2] = ligand concentration 1 (unit not given)
[3] = ligand concentration 10 (unit not given)
[4] = ligand concentration 100 (unit not given)
[5] = HEK293, read-out: OR13a Average response (VUAA1-normalized), 1 μM VOC, 50 μM VUAA1 = 1, responses not exceeding 0.05 considered 0
[6] = HEK293, read-out: OR13a Average response (VUAA1-normalized), 10 μM VOC, 50 μM VUAA1 = 1, responses not exceeding 0.05 considered 0
[7] = HEK293, read-out: OR13a Average response (VUAA1-normalized), 100 μM VOC, 50 μM VUAA1 = 1, responses not exceeding 0.05 considered 0
[8] = HEK293, read-out: OR13a response (VUAA1-normalized response), VOC concentration 1 μM
[9] = HEK293, read-out: OR13a response (VUAA1-normalized response), VOC concentration 10 μM
[10] = HEK293, read-out: OR13a response (VUAA1-normalized response), VOC concentration 100 μM

CCCCCCCCCC=O [decanal]
0: DF norm AVERAGE OR47a (Drosophila OR47a; [2]) | DF norm AVERAGE OR47a (Drosophila OR47a; [3]) | DF norm AVERAGE OR47a (Drosophila OR47a; [4]) | DF norm AVERAGE OR13a (Drosophila OR13a; [2]) | DF norm AVERAGE OR13a (Drosophila OR13a; [3]) | DF norm AVERAGE OR13a (Drosophila OR13a; [4])
0%: activation at 1 µM (Drosophila OR47a; [1]) | activation at 10 µM (Drosophila OR47a; [1]) | activation at 100 µM (Drosophila OR47a; [1]) | activation at 1 µM (Drosophila OR13a; [5]) | activation at 10 µM (Drosophila OR13a; [6]) | activation at 100 µM (Drosophila OR13a; [7]) | activation at 1 µM (Drosophila OR13a; [8]) | activation at 10 µM (Drosophila OR13a; [9]) | activation at 100 µM (Drosophila OR13a; [10])
0.00: Average response (Drosophila OR47a; odorant cc. 1 µM) | Average response (Drosophila OR47a; odorant cc. 10 µM) | Average response (Drosophila OR47a; odorant cc. 100 µM)

CCCCOC(C)=O [butyl acetate]
0%: activation at 1 µM (Drosophila OR13a; [5]) | activation at 10 µM (Drosophila OR13a; [6]) | activation at 1 µM (Drosophila OR13a; [8]) | activation at 10 µM (Drosophila OR13a; [9]) | activation at 100 µM (Drosophila OR13a; [10])
1.56%: activation at 100 µM (Drosophila OR13a; [7])
0: DF norm AVERAGE OR13a (Drosophila OR13a; [2]) | DF norm AVERAGE OR13a (Drosophila OR13a; [3]) | DF norm AVERAGE OR13a (Drosophila OR13a; [4])

CCCCOC(=O)CC [butyl propanoate]
0: DF norm AVERAGE OR13a (Drosophila OR13a; [2]) | DF norm AVERAGE OR13a (Drosophila OR13a; [3]) | DF norm AVERAGE OR13a (Drosophila OR13a; [4])
0%: activation at 1 µM (Drosophila OR13a; [5]) | activation at 10 µM (Drosophila OR13a; [6]) | activation at 100 µM (Drosophila OR13a; [7]) | activation at 1 µM (Drosophila OR13a; [8]) | activation at 10 µM (Drosophila OR13a; [9]) | activation at 100 µM (Drosophila OR13a; [10])

Source: publication PMC10709440, “High-throughput ligand profile characterization in novel cell lines expressing seven heterologous insect olfactory receptors for the detection of volatile plant biomarkers” (Scientific Reports, 2023)
